Measured values from US20250011288A1 (BRISTOL-MYERS SQUIBB COMPANY, priority 2021, published 2025).
pEC50: −log10 of the molar value.

target: T1, human RXFP1 (Homo sapiens, UniProt Q9HBX9); assay: human RXFP1 (hRXFP1) HEK293 cAMP assay (HTRF); assay type: cell-based; conditions: HEK293 cells stably expressing human RXFP1, 30 min at room temperature
T1 construct: expressed in transfected cells
T1 sequence (Q9HBX9 1-757): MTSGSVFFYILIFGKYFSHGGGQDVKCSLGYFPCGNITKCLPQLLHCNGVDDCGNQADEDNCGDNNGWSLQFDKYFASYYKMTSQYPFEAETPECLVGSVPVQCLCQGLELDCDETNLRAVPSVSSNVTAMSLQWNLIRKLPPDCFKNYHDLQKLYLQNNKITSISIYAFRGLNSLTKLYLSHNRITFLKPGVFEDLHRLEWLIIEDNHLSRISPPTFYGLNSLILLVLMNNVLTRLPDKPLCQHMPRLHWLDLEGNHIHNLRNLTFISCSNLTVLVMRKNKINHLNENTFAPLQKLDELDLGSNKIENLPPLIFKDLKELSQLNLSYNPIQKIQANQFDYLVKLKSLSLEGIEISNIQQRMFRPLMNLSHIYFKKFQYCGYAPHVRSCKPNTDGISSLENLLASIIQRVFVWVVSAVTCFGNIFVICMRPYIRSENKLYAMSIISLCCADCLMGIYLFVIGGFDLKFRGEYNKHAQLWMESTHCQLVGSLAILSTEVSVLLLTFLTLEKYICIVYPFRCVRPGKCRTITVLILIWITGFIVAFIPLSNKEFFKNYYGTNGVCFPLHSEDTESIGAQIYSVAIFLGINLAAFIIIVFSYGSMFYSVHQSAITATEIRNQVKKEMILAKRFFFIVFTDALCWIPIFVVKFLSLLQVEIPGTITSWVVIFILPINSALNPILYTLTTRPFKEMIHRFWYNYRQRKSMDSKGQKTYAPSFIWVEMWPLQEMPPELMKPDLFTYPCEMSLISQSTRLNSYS
Summary of the method: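 HEK293 cells stably expressing human RXFP1 (1500 cells/well) in HBSS/20 mM HEPES/0.05% BSA/0.5 mM IBMX, treated with compound (0.010 nM–50 µM final, 2% DMSO) for 30 min at room temperature. Intracellular cAMP read by HTRF; potency from 4-parameter logistic fit of cAMP versus concentration.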

`COc1ncc(C2=NOC3CC(C(C)O)CC23)cc1C(=O)N[C@H]1[C@@H](C(=O)Nc2ccc(F)c(C(F)(F)F)c2)[C@H]2CC[C@@H]1/C2=C\C1CC1` (stereo partly drawn) [Example 110, N-((1R,2R,3S, 4R,Z)-7-(cyclopropyl-methylene)-3-((4-fluoro-3-(trifluoromethyl)phenyl)carbamoyl)bicyclo[2.2.1]heptan-2-yl)-5-(5-(1-hydroxyethyl)-3a,5,6,6a-tetrahydro-4H-cyclopenta[d]isoxazol-3-yl)-2-methoxy-nicotinamide] and `COc1ncc(C2=NOC3CC(C(O)C4CC4)CC23)cc1C(=O)N[C@H]1[C@@H](C(=O)Nc2ccc(F)c(C(F)(F)F)c2)[C@H]2CC[C@@H]1/C2=C\C1CC1` (stereo partly drawn) [Example 111, 5-(5-(cyclopropyl (hydroxy)methyl)-3a,5,6,6a-tetrahydro-4H-cyclopenta[d]isoxazol-3-yl)-N-((1R,2R,3S,4R,Z)-7-(cyclopropyl-methylene)-3-((4-fluoro-3-(trifluoromethyl)phenyl)carbamoyl)bicyclo[2.2.1]heptan-2-yl)-2-methoxynicotinamide] are within 0.2 log units of each other in pEC50: 8.46 for the first, 8.44 for the second.

Compared with `CC1Cc2cc(C3=NOC4CC(O)CC34)cc(C(=O)N[C@H]3[C@@H](C(=O)Nc4ccc(F)c(C(F)(F)F)c4)[C@H]4CC[C@@H]3/C4=C\C3CC3)c2O1` (stereo partly drawn) [Example 154, N-[(1R,2R,3S,4R, 7Z)-7-(cyclopropyl-methylidene)-3-{[4-fluoro-3-(trifluoromethyl)phenyl]carbamoyl}bicyclo[2.2.1]heptan-2-yl]-5-{5-hydroxy-3aH,4H,5H,6H, 6aH-cyclopenta[d][1, 2]oxazol-3-yl}-2-methyl-2,3-dihydro-1-benzofuran-7-carboxamide], `CC(O)C1CC2ON=C(c3cc4c(c(C(=O)N[C@H]5[C@@H](C(=O)Nc6ccc(F)c(C(F)(F)F)c6)[C@H]6CC[C@@H]5/C6=C\C5CC5)c3)OC(C)(C)C4)C2C1` (stereo partly drawn) [Example 175, N-[(1R,2R,3S,4R, 7Z)-7-(cyclopropyl-methylidene)-3-{[4-fluoro-3-(trifluoromethyl)phenyl]carbamoyl}bicyclo[2.2.1]heptan-2-yl]-5-[5-(1-hydroxyethyl)-3aH,4H,5H,6H, 6aH-cyclopenta[d][1,2]oxazol-3-yl]-2,2-dimethyl-2,3-dihydro-1-benzofuran-7-carboxamide] is 0.28 log units lower in pEC50: 8.39 for the first, 8.11 for the second. The first is the more potent here.

Going from `COc1nn(C)cc1C(=O)N[C@@H]1C2CCC(/C2=C/C(F)(F)F)[C@@H]1C(=O)Nc1ccc(F)c(C(F)(F)F)c1` (stereo partly drawn) [Example 12, N-[(2R,3S,7Z)-3-{[4-fluoro-3-(trifluoromethyl)phenyl]carbamoyl}-7-(2,2,2-trifluoroethylidene)bicyclo[2.2.1]heptan-2-yl]-3-methoxy-1-methyl-1H-pyrazole-4-carboxamide] to `COc1ncc(-c2cccc(C(=O)O)c2)cc1C(=O)N[C@@H]1C2CCC(/C2=C/C(F)(F)F)[C@@H]1C(=O)Nc1ccc(F)c(C(F)(F)F)c1` (stereo partly drawn) [Example 29, 3-(5-{[(2R,3S,7Z)-3-{[4-fluoro-3-(trifluoromethyl)phenyl]carbamoyl}-7-(2,2,2-trifluoroethylidene)bicyclo[2.2.1]heptan-2-yl]carbamoyl}-6-methoxypyridin-3-yl)benzoic acid], the pEC50 rises from 5.34 to 6.87 (1.53 log units).

First: COc1ncc(C2=NOC3CC(CO)CC23)cc1C(=O)N[C@H]1[C@@H](C(=O)Nc2ccc(F)c(C(F)(F)F)c2)[C@H]2CC[C@@H]1/C2=C\C1CCCC1 (stereo partly drawn) [Example 101, N-((1R,2R,3S,4R,Z)-7-(cyclopentyl-methylene)-3-((4-fluoro-3-(trifluoromethyl)phenyl)carbamoyl)bicyclo[2.2.1]heptan-2-yl)-5-(5-(hydroxymethyl)-3a,5,6,6a-tetrahydro-4H-cyclopenta[d]isoxazol-3-yl)-2-methoxynicotinamide]
Second: COc1ncc(C2=NOC3CC(CO)CC23)cc1C(=O)N[C@H]1[C@@H](C(=O)Nc2ccc(F)c(C(F)(F)F)c2)[C@H]2CC[C@@H]1/C2=C\c1csc(C)n1 (stereo partly drawn) [Example 120, N-((1R,2R,3S,4R,Z)-3-((4-fluoro-3-(trifluoromethyl)phenyl)carbamoyl)-7-((2-methylthiazol-4-yl)methylene)bicyclo [2.2.1]heptan-2-yl)-5-(5-(hydroxymethyl)-3a,5,6,6a-tetrahydro-4H-cyclopenta[d]isoxazol-3-yl)-2-methoxynicotinamide]
The pEC50 of the first is 0.48 log units higher: 8.80 for the first, 8.32 for the second.

`COc1ncc(-c2cnc3n2CC(O)CC3)cc1C(=O)N[C@H]1[C@@H](C(=O)Nc2ccc(F)c(C(F)(F)F)c2)[C@H]2CC[C@@H]1/C2=C\C1CC1` (stereo partly drawn) [Example 102, N-((1R,2R,3S,4R,Z)-7-(cyclopropyl-methylene)-3-((4-fluoro-3-(trifluoromethyl)phenyl)carbamoyl)bicyclo[2.2.1]heptan-2-yl)-5-(6-hydroxy-5,6,7,8-tetrahydroimidazo [1,2-a]pyridin-3-yl)-2-methoxynicotinamide] and `COc1ncc(C2=NO[C@H]3C[C@H](C#N)CN23)cc1C(=O)N[C@@H]1C2CCC(/C2=C/C2CC2)[C@@H]1C(=O)Nc1ccc(F)c(C(F)(F)F)c1` (stereo partly drawn) [Example 134, 5-((6S,7aS)-6-cyano-5,6,7,7a-tetrahydropyrrolo [1,2-d][1,2,4]oxadiazo 1-3-yl)-N-((1R,2R,3S,4R,Z)-7-(cyclopropyl-methylene)-3-((4-fluoro-3-(trifluoromethyl)phenyl)carbamoyl)bicyclo[2.2.1]heptan-2-yl)-2-methoxynicotinamide] are within 0.2 log units of each other in pEC50: 8.60 for the first, 8.49 for the second.

Going from `O=C(O)c1cccc(C2=NOC(C(=O)N[C@@H]3C4CCC(/C4=C/C(F)(F)F)[C@@H]3C(=O)Nc3ccc(F)c(C(F)(F)F)c3)C2)c1` (stereo partly drawn) [Example 33, 3-(5-{[(2R,3S,7Z)-3-{[4-fluoro-3-(trifluoromethyl)phenyl]carbamoyl}-7-(2,2,2-trifluoroethylidene)bicyclo[2.2.1]heptan-2-yl]carbamoyl}-4,5-dihydro-1,2-oxazol-3-yl)benzoic acid] to `N#Cc1ccc2c(c1)CCc1c(C(=O)N[C@H]3[C@@H](C(=O)Nc4ccc(F)c(C(F)(F)F)c4)[C@H]4CC[C@@H]3/C4=C\C(F)(F)F)nn(CC(F)F)c1-2` [Example 55, 7-cyano-1-(2,2-difluoroethyl)-N-((1R,2R,3S,4R,Z)-3-((4-fluoro-3-(trifluoromethyl)phenyl)carbamoyl)-7-(2,2,2-trifluoroethylidene)bicyclo[2.2.1]heptan-2-yl)-4,5-dihydro-1H-benzo[g]indazole-3-carboxamide], the pEC50 rises from 5.36 to 6.44 (1.08 log units). The second is the more potent here.

Going from `CC(C)=C1C2CCC1[C@H](C(=O)Nc1ccc(F)c(C(F)(F)F)c1)[C@@H]2NC(=O)c1cc(C#N)ccn1` (stereo partly drawn) [Example 3, 4-cyano-N-[(2R,3S)-3-{[4-fluoro-3-(trifluoromethyl)phenyl]carbamoyl}-7-(propan-2-ylidene)bicyclo [2.2.1]heptan-2-yl]pyridine-2-carboxamide] to `COc1cnccc1C(=O)N[C@@H]1C2CCC(C2=C(C)C)[C@@H]1C(=O)Nc1ccc(F)c(C(F)(F)F)c1` (stereo partly drawn) [Example 6, N-[(2R,3S)-3-{[4-fluoro-3-(trifluoromethyl)phenyl]carbamoyl}-7-(propan-2-ylidene)bicyclo [2.2.1]heptan-2-yl]-3-methoxypyridine-4-carboxamide], the pEC50 falls from 6.36 to 5.96 (0.40 log units).

Going from `COc1nn(-c2cccc(C(=O)O)c2)cc1C(=O)N[C@@H]1C2CCC(/C2=C/c2ccccc2)[C@@H]1C(=O)Nc1ccc(F)c(C(F)(F)F)c1` (stereo partly drawn) [Example 54, 3-(4-{[(2R,3S,7Z)-3-{[4-fluoro-3-(trifluoromethyl)phenyl]carbamoyl}-7-(phenylmethylidene)bicyclo [2.2.1]heptan-2-yl]carbamoyl}-3-methoxy-1H-pyrazol-1-yl)benzoic acid] to `COc1ncc(-c2cc([C@H](OC(=O)NC3CCOCC3)C(F)(F)F)ccc2F)cc1C(=O)N[C@@H]1C2CCC(/C2=C/C2CC2)[C@@H]1C(=O)Nc1ccc(F)c(C(F)(F)F)c1` (stereo partly drawn) [Example 185, (1S)-1-[3-(5-{[(2R,3S,7Z)-7-(cyclopropyl-methylidene)-3-{[4-fluoro-3-(trifluoromethyl)phenyl]carbamoyl}bicyclo[2.2.1]heptan-2-yl]carbamoyl}-6-methoxypyridin-3-yl)-4-fluorophenyl]-2,2,2-trifluoroethyl N-(oxan-4-yl)carbamate], the pEC50 rises from 5.92 to 8.60 (2.68 log units). The second is the more potent here.

In the case of `COc1ncc(C2=NOC3CC(CO)CC23)cc1C(=O)N[C@H]1[C@@H](C(=O)N[C@H](C)C2(C)CC2)[C@H]2CC[C@@H]1/C2=C\C1CC1` (stereo partly drawn) [Example 105, N-((1R,2R,3S,4R,Z)-7-(cyclopropyl-methylene)-3-(((R)-1-(1-methylcyclopropyl)ethyl)carbamoyl)bicyclo[2.2.1]heptan-2-yl)-5-(5-(hydroxymethyl)-3a,5,6,6a-tetrahydro-4H-cyclopenta[d]isoxazol-3-yl)-2-methoxynicotinamide], the pEC50 was 8.92.
